Data set [1] deals with SH-SY5Y. Nature of the data set: Cytotoxicity against human SH-SY5Y cells expressing low level of topoisomerase I/II measured after 72 hrs by MTT assay. The format is functional, cell-based. Background: Formazan colour is commonly taken as a measure of viable cells.
Data set [2] relates to MDA-MB-231. Nature of the data set: Cytotoxicity against human MDA-MB-231 cells expressing high level of topoisomerase I/II measured after 72 hrs by MTT assay. The format is functional, cell-based. The note with it: MDA-MB-231, 72 h.
Data set [3] concerns HCT-116. In words: Cytotoxicity against human HCT-116 cells expressing high level of topoisomerase I/II measured after 72 hrs by MTT assay. The format is functional, cell-based. As to conditions: HCT-116, 72 h.
Data set [4] deals with MCF7. Nature of the data set: Cytotoxicity against human MCF7 cells expressing high level of topoisomerase I/II measured after 72 hrs by MTT assay. As to conditions: MCF7, 72 h. The format is functional, cell-based.
The test system of data set [5] is A-375. In words: Cytotoxicity against human A-375 cells expressing high level of topoisomerase I/II measured after 72 hrs by MTT assay. The class given is functional, cell-based. The note with it: A-375, 72 h.
Data set [6] has as its system A549. Nature of the data set: Cytotoxicity against human A549 cells expressing high level of topoisomerase I/II measured after 72 hrs by MTT assay. The class given is functional, cell-based. The note with it: A549, 72 h.
Data set [7] can be described thus: Cytotoxicity against human L02 cells measured after 72 hrs by MTT assay. The format is toxicity, cell-based.
Data set [8] in a line: Cytotoxicity against human HEK293T cells measured after 72 hrs by MTT assay. The format is toxicity, cell-based, HEK-293T.

Structures are written as SMILES. Where only a bound is given, the exact number is not on record here.

As for `CC[C@@]1(O)C(=O)OCc2c1cc1n(c2=O)Cc2cc3ccccc3nc2-1` [CAMPTOTHECIN], the concentration for half-maximal inhibition (IC50) in data set [1] turned out to be 610 nM; in data set [2], 490 nM; in data set [3] it was 600 nM; in data set [4], 350 nM; in data set [5] it was 660 nM; in data set [6], 370 nM. Moreover, the IC50 at 72 h in data set [7] stood at 140 nM; in data set [8] it was 690 nM.
As for `O=C1c2c[n+]([O-])c3ccccc3c2C(=O)c2c1c1ccccc1n2CCN1CCCC1`, the IC50 came out at 520 nM in data set [1]; 630 nM in data set [2]; 270 nM in data set [3]; 320 nM in data set [4]; 430 nM in data set [5]; 410 nM in data set [6]. This molecule returned an IC50 at 72 h in data set [7] of 930 nM.
`O=C1c2c[n+]([O-])c3ccccc3c2C(=O)c2c1c1ccccc1n2Cc1cn([C@H]2O[C@H](CO)[C@@H](O)[C@H]2O)nn1`: the IC50 was determined as 1340 nM in data set [1]; 1700 nM in data set [2]; 710 nM in data set [3]; 1490 nM in data set [4]; 340 nM in data set [5]; 2680 nM in data set [6]. Further, the half-maximal inhibitory concentration (IC50) at 72 h in data set [7] is 950 nM; in data set [8], 1370 nM.
Take `CC1(C)OC[C@@H](Cn2cc(Cn3c4c(c5ccccc53)C(=O)c3c[n+]([O-])c5ccccc5c3C4=O)nn2)O1`: the half-maximal inhibitory concentration (IC50) was more than 1000 nM in data set [1]; more than 1000 nM in data set [2]; 340 nM in data set [3]; more than 1000 nM in data set [4]; 450 nM in data set [5]; 4700 nM in data set [6]. Further, the IC50 at 72 h was 2900 nM in data set [7] and 6020 nM in data set [8].
As to `CC1(C)OC[C@H](Cn2cc(Cn3c4c(c5ccccc53)C(=O)c3c[n+]([O-])c5ccccc5c3C4=O)nn2)O1`, the half-maximal inhibitory concentration (IC50) in data set [1] worked out at 820 nM; in data set [2] it was 530 nM; in data set [3], 130 nM; in data set [4] it was 530 nM; in data set [5] it was 180 nM; in data set [6], 340 nM. The values for the IC50 at 72 h in data set [7] and in data set [8] were 470 nM and 100 nM, respectively.
Regarding `O=C1c2c[n+]([O-])c3ccccc3c2C(=O)c2c1c1ccccc1n2Cc1cn([C@@H]2O[C@H](CO)[C@@H](O)[C@H](O)[C@H]2O)nn1`, the IC50 in data set [1] stood at 880 nM; in data set [2] it was 650 nM; in data set [3], 130 nM; in data set [4] it was 590 nM; in data set [5] it was 230 nM; in data set [6], 560 nM. Further, the IC50 at 72 h was found to be 420 nM in data set [7] and 940 nM in data set [8].
For `CC1(C)OCC(Cn2cc(Cn3c4c(c5ccccc53)C(=O)c3c[n+]([O-])c5ccccc5c3C4=O)nn2)O1` (stereo not drawn), the IC50 worked out at 230 nM in data set [1]; 230 nM in data set [2]; 70 nM in data set [3]; 290 nM in data set [4]; 330 nM in data set [5]; 80 nM in data set [6]. Also, the results for the IC50 at 72 h in data set [7] and in data set [8] were 120 nM and 5510 nM, respectively.
Regarding `CCCN1CCN(CCCCn2c3c(c4ccccc42)C(=O)c2c[n+]([O-])c4ccccc4c2C3=O)CC1`, the IC50 in data set [1] was found to be 3970 nM; in data set [2] it was 2980 nM; in data set [3], 790 nM; in data set [4] it was 1280 nM; in data set [5], 870 nM; in data set [6], 320 nM. This molecule also showed an IC50 at 72 h in data set [7] of 6830 nM.
On to `CN1CCN(CCCn2c3c(c4ccccc42)C(=O)c2c[n+]([O-])c4ccccc4c2C3=O)CC1`, for which the half-maximal inhibitory concentration (IC50) in data set [1] is 560 nM; in data set [2] it was 390 nM; in data set [3] it was 560 nM; in data set [4] it was 220 nM; in data set [5] it was 470 nM; in data set [6], 140 nM. The half-inhibitory concentration (IC50) at 72 h in data set [7] worked out at 230 nM; in data set [8], 170 nM.
For the molecule `O=C1c2c[n+]([O-])c3ccccc3c2C(=O)c2c1c1ccccc1n2Cc1cn(CC(O)CO)nn1` (stereo not drawn), the IC50 was more than 1000 nM in data set [1]; 1290 nM in data set [2]; 250 nM in data set [3]; 1110 nM in data set [4]; 440 nM in data set [5]; 880 nM in data set [6]. The half-maximal inhibitory concentration (IC50) at 72 h in data set [7] came out at 1070 nM; in data set [8], 760 nM.
Turning to `CC(=O)OC[C@H]1O[C@H](n2cc(Cn3c4c(c5ccccc53)C(=O)c3c[n+]([O-])c5ccccc5c3C4=O)nn2)[C@H](OC(C)=O)[C@@H]1OC(C)=O`, the IC50 in data set [1] is 510 nM; in data set [2] it was 250 nM; in data set [3] it was 150 nM; in data set [4] it was 670 nM; in data set [5], 690 nM; in data set [6], 430 nM. Moreover, the IC50 at 72 h in data set [7] was found to be 90 nM; in data set [8], 210 nM.
Take `O=C1c2c[n+]([O-])c3ccccc3c2C(=O)c2c1c1ccccc1n2Cc1cn(C[C@@H](O)CO)nn1`: the IC50 was more than 500 nM in data set [1]; 670 nM in data set [2]; 190 nM in data set [3]; 600 nM in data set [4]; 140 nM in data set [5]; 390 nM in data set [6]. The results for the half-inhibitory concentration (IC50) at 72 h in data set [7] and in data set [8] were 490 nM and 2030 nM, respectively.
For `O=C1c2c[n+]([O-])c3ccccc3c2C(=O)c2c1c1ccccc1n2CCN1CCOCC1`, the IC50 in data set [1] came out at 2020 nM; in data set [2] it was 2030 nM; in data set [3], 1280 nM; in data set [4], 1740 nM; in data set [5], 820 nM; in data set [6], 560 nM. Besides, the midpoint of inhibition in data set [7], the IC50 at 72 h, lay at 1730 nM.
With `O=C1c2c[n+]([O-])c3ccccc3c2C(=O)c2c1c1ccccc1n2CCCCn1ccnc1`, the IC50 was 130 nM in data set [1]; 210 nM in data set [2]; 240 nM in data set [3]; 130 nM in data set [4]; 350 nM in data set [5]; 170 nM in data set [6]. For the same molecule, the IC50 at 72 h in data set [7] turned out to be 150 nM; in data set [8] it was 280 nM.
For `O=C1c2c[n+]([O-])c3ccccc3c2C(=O)c2c1c1ccccc1n2CCCN1CCC(O)CC1`, the IC50 worked out at 130 nM in data set [1]; 280 nM in data set [2]; 190 nM in data set [3]; 190 nM in data set [4]; 240 nM in data set [5]; 350 nM in data set [6]. The IC50 at 72 h in data set [7] is 120 nM; in data set [8], 170 nM.
Consider `CN(C)CCCn1c2c(c3ccccc31)C(=O)c1c[n+]([O-])c3ccccc3c1C2=O`, for which the IC50 in data set [1] stood at 330 nM; in data set [2], 490 nM; in data set [3] it was 350 nM; in data set [4] it was 240 nM; in data set [5], 410 nM; in data set [6] it was 310 nM. Also, the IC50 at 72 h stood at 490 nM in data set [7] and 130 nM in data set [8].
Regarding `CCOC(=O)[C@@H]1OC(C)(C)O[C@H]1Cn1cc(Cn2c3c(c4ccccc42)C(=O)c2c[n+]([O-])c4ccccc4c2C3=O)nn1`, the IC50 in data set [1] was more than 1000 nM; in data set [2] it was 1040 nM; in data set [3], 780 nM; in data set [4], more than 1000 nM; in data set [5] it was 570 nM; in data set [6], more than 1000 nM. The half-inhibitory concentration (IC50) at 72 h in data set [7] was 840 nM; in data set [8] it was 130 nM.
Consider `O=C1c2c[n+]([O-])c3ccccc3c2C(=O)c2c1c1ccccc1n2CCCCCN1CCOCC1`, for which the half-inhibitory concentration (IC50) in data set [1] turned out to be 300 nM; in data set [2] it was 330 nM; in data set [3], 300 nM; in data set [4] it was 260 nM; in data set [5], 230 nM; in data set [6], 130 nM. Moreover, the IC50 at 72 h in data set [7] turned out to be 330 nM; in data set [8], 150 nM.
`CCCCN1CCN(CCCCn2c3c(c4ccccc42)C(=O)c2c[n+]([O-])c4ccccc4c2C3=O)CC1`: the half-inhibitory concentration (IC50) is 6100 nM in data set [1]; 900 nM in data set [2]; 1920 nM in data set [3]; 6900 nM in data set [4]; 2150 nM in data set [5]; 550 nM in data set [6]. For the same molecule, in data set [7], inhibition was half-maximal at 5690 nM (IC50 at 72 h).
As for `O=C1c2c[n+]([O-])c3ccccc3c2C(=O)c2c1c1ccccc1n2CCCCN1CCCCC1`, the half-inhibitory concentration (IC50) was 230 nM in data set [1]; 610 nM in data set [2]; 200 nM in data set [3]; 150 nM in data set [4]; 190 nM in data set [5]; 150 nM in data set [6]. In data set [7], half-maximal inhibition (IC50 at 72 h) was put at 610 nM.
For the molecule `O=C1c2c[n+]([O-])c3ccccc3c2C(=O)c2c1c1ccccc1n2CCCCN1CCOCC1`, the concentration for half-maximal inhibition (IC50) in data set [1] came to 170 nM; in data set [2], 240 nM; in data set [3] it was 90 nM; in data set [4], 130 nM; in data set [5], 170 nM; in data set [6], 90 nM. This molecule yielded a concentration for half-maximal inhibition (IC50) at 72 h in data set [7] of 510 nM.
Consider `O=C1c2c[n+]([O-])c3ccccc3c2C(=O)c2c1c1ccccc1n2CCCCN1CCN(CCO)CC1`, for which the IC50 in data set [1] came out at 450 nM; in data set [2], 740 nM; in data set [3], 330 nM; in data set [4], 380 nM; in data set [5], 470 nM; in data set [6], 200 nM. Besides, it took 880 nM to reach half-maximal inhibition in data set [7] (IC50 at 72 h).
With `CN(C)CCn1c2c(c3ccccc31)C(=O)c1c[n+]([O-])c3ccccc3c1C2=O`, the IC50 in data set [1] came to 170 nM; in data set [2], 160 nM; in data set [3], 110 nM; in data set [4], 200 nM; in data set [5], 140 nM; in data set [6], 200 nM. This molecule had an IC50 at 72 h in data set [7] of 750 nM.
`O=C1c2c[n+]([O-])c3ccccc3c2C(=O)c2c1c1ccccc1n2CCN1CCCCC1`: the IC50 came to 1860 nM in data set [1]; 1050 nM in data set [2]; 780 nM in data set [3]; 620 nM in data set [4]; 180 nM in data set [5]; 1080 nM in data set [6]. For the same molecule, 1050 nM corresponded to half-maximal inhibition in data set [7] (IC50 at 72 h).

As usually defined, the IC50 is the midpoint of a concentration-inhibition curve. A high value points to weaker potency.

Values taken from ChEMBL document CHEMBL5154929, “Optimization of the Natural Product Calothrixin A to Discover Novel Dual Topoisomerase I and II Inhibitors with Improved Anticancer Activity” (J Med Chem, 2022).
